Paper PMC5773532, “Crystal structure of an assembly intermediate of respiratory Complex II” (Nature Communications, 2018)

T1: Escherichia coli quinol:fumarate reductase flavoprotein subunit FrdA (isolated subunit) (E. coli, UniProt P00363 1-602, covalent FAD on H44 (8α-N(3)-histidyl linkage))
T1 sequence (looked up): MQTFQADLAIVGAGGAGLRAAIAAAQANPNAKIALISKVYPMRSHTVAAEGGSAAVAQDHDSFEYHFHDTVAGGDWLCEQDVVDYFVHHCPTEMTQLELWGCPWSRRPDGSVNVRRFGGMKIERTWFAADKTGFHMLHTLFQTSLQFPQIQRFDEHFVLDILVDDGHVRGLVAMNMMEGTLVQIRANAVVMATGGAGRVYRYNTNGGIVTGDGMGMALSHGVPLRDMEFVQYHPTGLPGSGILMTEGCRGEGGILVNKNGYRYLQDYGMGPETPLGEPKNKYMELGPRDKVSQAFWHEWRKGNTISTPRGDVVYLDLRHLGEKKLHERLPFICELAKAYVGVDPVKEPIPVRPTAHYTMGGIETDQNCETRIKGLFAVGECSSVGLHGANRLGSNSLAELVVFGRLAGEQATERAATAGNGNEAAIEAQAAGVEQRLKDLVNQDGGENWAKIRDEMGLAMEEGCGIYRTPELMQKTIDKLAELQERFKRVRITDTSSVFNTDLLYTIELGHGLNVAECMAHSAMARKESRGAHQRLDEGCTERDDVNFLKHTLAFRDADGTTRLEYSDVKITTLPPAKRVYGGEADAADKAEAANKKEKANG

T2: Escherichia coli succinate:quinone oxidoreductase flavoprotein subunit SdhA (isolated subunit) (E. coli, UniProt P0AC41 1-588)
T2 sequence (looked up): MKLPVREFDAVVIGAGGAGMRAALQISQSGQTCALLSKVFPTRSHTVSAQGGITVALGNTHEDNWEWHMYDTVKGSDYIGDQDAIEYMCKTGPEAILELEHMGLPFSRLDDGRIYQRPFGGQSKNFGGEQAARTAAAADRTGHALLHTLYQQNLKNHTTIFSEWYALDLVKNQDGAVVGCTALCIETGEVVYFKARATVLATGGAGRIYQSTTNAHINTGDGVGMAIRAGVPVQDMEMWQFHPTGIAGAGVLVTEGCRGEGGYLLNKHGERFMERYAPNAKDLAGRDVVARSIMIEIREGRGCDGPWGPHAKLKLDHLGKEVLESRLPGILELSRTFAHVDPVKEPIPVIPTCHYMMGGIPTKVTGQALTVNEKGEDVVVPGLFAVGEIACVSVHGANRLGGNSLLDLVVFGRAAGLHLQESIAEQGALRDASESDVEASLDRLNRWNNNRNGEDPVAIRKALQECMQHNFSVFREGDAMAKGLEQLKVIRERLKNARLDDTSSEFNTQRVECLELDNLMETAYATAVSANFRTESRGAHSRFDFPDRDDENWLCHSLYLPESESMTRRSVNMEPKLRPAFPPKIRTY


Tests used:
FrdA+SdhE = biological target: T3, FrdA+SdhE (Escherichia coli, UniProt P00363); assay: Optical difference spectroscopy, dicarboxylate binding to FrdA in the presence of SdhE
T3 construct: made in house; host or cells: FrdA: E. coli RP-2; SdhE for this assay: not described
Description: (§1) If this mechanistic proposal for covalent flavinylation is correct, we would anticipate that the FrdA-SdhE assembly intermediate would bind with reasonable affinity to biologically relevant dicarboxylates. […] Thus, the shifted architecture of SdhE-bound FrdA maintains dicarboxylate binding, supporting our mechanism.
(§2) Studies were performed using a HP8453 UV/Vis spectrophotometer (Agilent, Santa Clara, CA). […] The isolated flavoproteins were added to a cuvette and titrated by the sequential addition of ligand solutions. The wavelength giving the highest amplitude change for each ligand was selected from the difference spectra for the analysis. The dissociation constant (Kd) values were obtained by the analysis of the changes in absorbance vs total ligand concentration. The Kd was determined according Eq. 1:1 ΔA=ΔAmaxET+LT+Kd-ET+LT+Kd^2-4ETLT/2ET where ET is a total protein concentration, LT is a total ligand concentration, ΔA and ΔAmax are the absorbance changes at a given and saturation ligand concentration. The protein concentration used for FrdA, SdhA, and quinol:fumarate reductase (QFR) were in a range of 7 to 9 µM. […] The concentration of the isolated flavoprotein was determined in 0.5% SDS using the FAD extinction coefficient ε^445 = […].

E. coli FrdA subunit = biological target: T4, E. coli FrdA subunit (Escherichia coli, UniProt P00363); assay: biochemical; type: binding
T4 construct: made in house; host or cells: E. coli RP-2 (RP437ΔfrdΔsdh)
Description: (§3) To interrogate dicarboxylate orientation in solution, we focused on oxaloacetate. When oxaloacetate is correctly oriented in the active site, it induces a characteristic spectrum (charge transfer band) attributed to π–π interactions between the oxygen of oxaloacetate and the isoalloxazine ring of FAD.
(§4) Studies were performed using a HP8453 UV/Vis spectrophotometer (Agilent, Santa Clara, CA). Binding experiments were carried out in 50 mM Bis-Tris-Propane (pH 8.0) at 25 °C. The isolated flavoproteins were added to a cuvette and titrated by the sequential addition of ligand solutions. The wavelength giving the highest amplitude change for each ligand was selected from the difference spectra for the analysis. The dissociation constant (Kd) values were obtained by the analysis of the changes in absorbance vs total ligand concentration. The Kd was determined according Eq. 1:1 ΔA=ΔAmaxET+LT+Kd-ET+LT+Kd^2-4ETLT/2ET where ET is a total protein concentration, LT is a total ligand concentration, ΔA and ΔAmax are the absorbance changes at a given and saturation ligand concentration. The protein concentration used for FrdA, SdhA, and quinol:fumarate reductase (QFR) were in a range of 7 to 9 µM. […]

SdhA+SdhE = SdhA+SdhE (Escherichia coli, UniProt P0AC41); assay: Optical difference spectroscopy, dicarboxylate binding to SdhA in the presence of SdhE; details: read-out: Kd^malonate
Description: as §1, §2

E. coli SdhA subunit = E. coli SdhA subunit (Escherichia coli, UniProt P0AC41); assay: Optical difference spectroscopy, ligand binding to isolated SdhA subunit; details: read-out: Kd^malonate
Description: as §3, §4

[1] = biological target: T1, Escherichia coli quinol:fumarate …; assay: cell-based or functional assay
[2] = biological target: T2, Escherichia coli succinate:quinone …; assay: cell-based or functional assay
[3] = biological target: T1, Escherichia coli quinol:fumarate …; assay: optical difference spectroscopy (FAD absorbance titration); isolated flavoprotein (7 to 9 µM) in the cuvette titrated with SdhE; 50 mM Bis-Tris-Propane pH 8.0, 25 °C; 387–458 nm; fit of absorbance change against total ligand concentration; details: both partners purified

Row | inhibition by SdhE of the succinate:DCIP reductase reaction of isolated FrdA (0.45 µM), pH 8.0, 30 °C; IC50^SdhE [1] | inhibition by SdhE of the succinate:DCIP reductase reaction of isolated SdhA, pH 8.0, 30 °C; IC50^SdhE [2] | Kd [3] | Molecule | increase of Kd^malonate in the presence of SdhE (FrdA+SdhE; presence vs absence of SdhE, stated for both FrdA and SdhA subunits) | Kd (FrdA+SdhE; read-out: Kd^malonate) | Kd (E. coli FrdA subunit) | Kd (SdhA+SdhE) | Kd (E. coli SdhA subunit)
1 | – | – | – | O=C(O)CC(=O)O [malonate] | 5- to 7 fold | 180 ± 20 µM | 26 ± 3 µM | 60 ± 5 µM | 11 ± 1 µM
2 | 1.2 µM | 1.5 µM | 0.7 ± 0.1 µM | Escherichia coli SdhE assembly factor (natural protein, E. coli, SdhE, FAD assembly factor of E. coli Complex II, as used in optical titrations and kinetics; construct not described) MDINNKARIHWACRRGMRELDISIMPFFEHEYDSLSDDEKRIFIRLLECDDPDLFNWLMNHGKPADAELEMMVRLIQTRNRERGPVAI | – | – | – | – | –
